Results reported in patent US20240398893A1, “ANTI-CORONAVIRUS POLYPEPTIDE AS WELL AS DERIVATIVE AND APPLICATION THEREOF” (priority 2021, published 2024).

Tested on: pseudovirus of SARS-COV-2 variant Omicron (BA.1)
Conditions: pseudovirus of variant Omicron (BA.1)

SMILES: CC[C@H](C)[C@H](NC(=O)CNC(=O)[C@H](CO)NC(=O)[C@@H](NC(=O)[C@H](CC(=O)O)NC(=O)CNC(=O)[C@H](Cc1ccccc1)NC(=O)[C@H](CCCCN)NC(=O)[C@@H](N)C(C)C)[C@@H](C)CC)C(=O)N[C@@H](CC(N)=O)C(=O)N[C@@H](C)C(=O)N[C@@H](CO)C(=O)N[C@H](C(=O)N[C@H](C(=O)N[C@@H](CC(N)=O)C(=O)N[C@H](C(=O)N[C@@H](CCCCN)C(=O)N[C@@H](CCC(=O)O)C(=O)N[C@@H](CCC(=O)O)C(=O)N[C@H](C(=O)N[C@@H](CC(=O)O)C(=O)N[C@@H](CCCNC(=N)N)C(=O)N[C@@H](CC(C)C)C(=O)N[C@@H](Cc1ccc(O)cc1)C(=O)N[C@@H](CCC(=O)O)C(=O)N[C@H](C(=O)N[C@H](C(=O)N[C@@H](CCCCN)C(=O)N[C@@H](CC(N)=O)C(=O)N[C@@H](CC(C)C)C(=O)N[C@@H](CC(N)=O)C(=O)N[C@@H](CCC(=O)O)C(=O)N[C@@H](CO)C(=O)N[C@@H](CC(C)C)C(=O)N[C@H](C(=O)N[C@@H](CC(=O)O)C(=O)N[C@@H](CC(C)C)C(=O)N[C@@H](CCC(N)=O)C(=O)N[C@@H](CCC(=O)O)C(=O)N[C@@H](CC(C)C)C(=O)NCC(=O)N[C@@H](CO)C(=O)NCC(=O)N[C@@H](CO)C(=O)NCC(=O)N[C@@H](CSCC(=O)O[C@H]1CC[C@@]2(C)C(=CC[C@H]3[C@@H]4CC[C@H]([C@H](C)CCCC(C)C)[C@@]4(C)CC[C@@H]32)C1)C(N)=O)[C@@H](C)CC)C(C)C)C(C)C)[C@@H](C)CC)[C@@H](C)CC)C(C)C)C(C)C [P3-3-GS-Chol]
- EC50: 1730 nM

SMILES: CC[C@H](C)[C@H](NC(=O)CNC(=O)[C@H](CO)NC(=O)[C@@H](NC(=O)[C@H](CC(=O)O)NC(=O)CNC(=O)[C@H](Cc1ccccc1)NC(=O)[C@H](CCCCN)NC(=O)[C@@H](N)C(C)C)[C@@H](C)CC)C(=O)N[C@@H](CC(N)=O)C(=O)N[C@@H](C)C(=O)N[C@@H](CO)C(=O)N[C@H](C(=O)N[C@H](C(=O)N[C@@H](CC(N)=O)C(=O)N[C@H](C(=O)N[C@@H](CCCCN)C(=O)N[C@@H](CCC(=O)O)C(=O)N[C@@H](CCC(=O)O)C(=O)N[C@H](C(=O)N[C@@H](CC(=O)O)C(=O)N[C@@H](CCCNC(=N)N)C(=O)N[C@@H](CC(C)C)C(=O)N[C@@H](Cc1ccc(O)cc1)C(=O)N[C@@H](CCC(=O)O)C(=O)N[C@H](C(=O)N[C@H](C(=O)N[C@@H](CCCCN)C(=O)N[C@@H](CC(N)=O)C(=O)N[C@@H](CC(C)C)C(=O)N[C@@H](CC(N)=O)C(=O)N[C@@H](CCC(=O)O)C(=O)N[C@@H](CO)C(=O)N[C@@H](CC(C)C)C(=O)N[C@H](C(=O)N[C@@H](CC(=O)O)C(=O)N[C@@H](CC(C)C)C(=O)N[C@@H](CCC(N)=O)C(=O)N[C@@H](CCC(=O)O)C(=O)N[C@@H](CC(C)C)C(=O)N[C@@H](CSCC(=O)NCCOCCOCCOCCOCC(=O)O[C@H]1CC[C@@]2(C)C(=CC[C@H]3[C@@H]4CC[C@H]([C@H](C)CCCC(C)C)[C@@]4(C)CC[C@@H]32)C1)C(N)=O)[C@@H](C)CC)C(C)C)C(C)C)[C@@H](C)CC)[C@@H](C)CC)C(C)C)C(C)C [P3-3-PEG-Chol]
- EC50: 571 nM

SMILES: CC[C@H](C)[C@H](NC(=O)CNC(=O)[C@H](CO)NC(=O)[C@@H](NC(=O)[C@H](CC(=O)O)NC(=O)CNC(=O)[C@H](Cc1ccccc1)NC(=O)[C@H](CCCCN)NC(=O)[C@@H](N)C(C)C)[C@@H](C)CC)C(=O)N[C@@H](CC(N)=O)C(=O)N[C@@H](C)C(=O)N[C@@H](CO)C(=O)N[C@H](C(=O)N[C@H](C(=O)N[C@@H](CC(N)=O)C(=O)N[C@H](C(=O)N[C@@H](CCCCN)C(=O)N[C@@H](CCC(=O)O)C(=O)N[C@@H](CCC(=O)O)C(=O)N[C@H](C(=O)N[C@@H](CC(=O)O)C(=O)N[C@@H](CCCNC(=N)N)C(=O)N[C@@H](CC(C)C)C(=O)N[C@@H](Cc1ccc(O)cc1)C(=O)N[C@@H](CCC(=O)O)C(=O)N[C@H](C(=O)N[C@H](C(=O)N[C@@H](CCCCN)C(=O)N[C@@H](CC(N)=O)C(=O)N[C@@H](CC(C)C)C(=O)N[C@@H](CC(N)=O)C(=O)N[C@@H](CCC(=O)O)C(=O)N[C@@H](CO)C(=O)N[C@@H](CC(C)C)C(=O)N[C@H](C(=O)N[C@@H](CC(=O)O)C(=O)N[C@@H](CC(C)C)C(=O)N[C@@H](CCC(N)=O)C(=O)N[C@@H](CCC(=O)O)C(=O)N[C@@H](CC(C)C)C(=O)O)[C@@H](C)CC)C(C)C)C(C)C)[C@@H](C)CC)[C@@H](C)CC)C(C)C)C(C)C [P3-3]
- EC50: 22700 nM
